According to BindingDB's records for doi:10.1021/acs.jmedchem.6b00608 (Chinese Academy of Sciences, 2016):

target: T1, Tyrosine-protein kinase receptor UFO (Homo sapiens, UniProt P30530); assay: Inhibition of human recombinant AXL incubated for 1 to 1.5 hrs by FRET based Z'-Lyte kinase assay
T1 sequence (P30530 whole entry): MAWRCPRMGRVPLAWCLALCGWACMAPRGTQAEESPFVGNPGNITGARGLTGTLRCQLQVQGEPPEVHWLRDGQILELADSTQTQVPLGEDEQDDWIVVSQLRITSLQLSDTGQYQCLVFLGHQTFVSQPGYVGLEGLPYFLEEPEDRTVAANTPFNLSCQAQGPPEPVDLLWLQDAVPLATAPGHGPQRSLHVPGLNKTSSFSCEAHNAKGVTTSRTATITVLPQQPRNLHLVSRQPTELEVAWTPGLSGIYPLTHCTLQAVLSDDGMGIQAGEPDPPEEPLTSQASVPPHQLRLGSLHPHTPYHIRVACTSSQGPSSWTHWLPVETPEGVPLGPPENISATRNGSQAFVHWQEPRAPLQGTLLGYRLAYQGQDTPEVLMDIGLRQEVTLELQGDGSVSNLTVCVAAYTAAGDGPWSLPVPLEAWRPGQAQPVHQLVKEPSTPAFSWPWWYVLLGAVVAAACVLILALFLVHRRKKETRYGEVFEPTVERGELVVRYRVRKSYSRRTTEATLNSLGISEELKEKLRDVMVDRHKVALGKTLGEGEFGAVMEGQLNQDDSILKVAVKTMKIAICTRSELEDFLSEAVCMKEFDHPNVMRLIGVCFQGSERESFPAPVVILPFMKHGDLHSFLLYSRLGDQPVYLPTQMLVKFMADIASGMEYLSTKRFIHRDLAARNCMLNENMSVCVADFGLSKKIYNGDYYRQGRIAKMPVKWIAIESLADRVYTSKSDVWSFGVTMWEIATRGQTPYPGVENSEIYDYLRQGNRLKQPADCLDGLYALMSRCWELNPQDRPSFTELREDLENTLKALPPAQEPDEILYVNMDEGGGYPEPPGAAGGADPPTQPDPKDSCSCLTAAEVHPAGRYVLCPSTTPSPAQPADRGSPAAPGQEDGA

IC50, > 10 µM:
Cc1c(C(=O)Nc2ccc(Oc3ncnc4[nH]cc(-c5ccccc5)c34)c(F)c2)c(=O)c2cc(F)ccc2n1C
Cc1c(C(=O)Nc2ccc(Oc3ncnc4[nH]cc(-c5ccccc5)c34)c(F)c2)c(=O)c2cc3ccccc3cc2n1C
Cc1c(C(=O)Nc2ccc(Oc3ncnc4[nH]cc(-c5ccccc5)c34)c(F)c2)c(=O)c2cc(-c3ccccc3)ccc2n1C
